Test results taken from patent publication US11891365B2, “3-alkyl-4-amido-bicyclic [4,5,0] hydroxamic acids as HDAC inhibitors” (Valo Health, Inc., priority 2015, dated 2024).

Target: T1, Full length human recombinant HDAC6 protein (Homo sapiens, UniProt Q9UBN7)
T1 sequence (Q9UBN7 1-1215): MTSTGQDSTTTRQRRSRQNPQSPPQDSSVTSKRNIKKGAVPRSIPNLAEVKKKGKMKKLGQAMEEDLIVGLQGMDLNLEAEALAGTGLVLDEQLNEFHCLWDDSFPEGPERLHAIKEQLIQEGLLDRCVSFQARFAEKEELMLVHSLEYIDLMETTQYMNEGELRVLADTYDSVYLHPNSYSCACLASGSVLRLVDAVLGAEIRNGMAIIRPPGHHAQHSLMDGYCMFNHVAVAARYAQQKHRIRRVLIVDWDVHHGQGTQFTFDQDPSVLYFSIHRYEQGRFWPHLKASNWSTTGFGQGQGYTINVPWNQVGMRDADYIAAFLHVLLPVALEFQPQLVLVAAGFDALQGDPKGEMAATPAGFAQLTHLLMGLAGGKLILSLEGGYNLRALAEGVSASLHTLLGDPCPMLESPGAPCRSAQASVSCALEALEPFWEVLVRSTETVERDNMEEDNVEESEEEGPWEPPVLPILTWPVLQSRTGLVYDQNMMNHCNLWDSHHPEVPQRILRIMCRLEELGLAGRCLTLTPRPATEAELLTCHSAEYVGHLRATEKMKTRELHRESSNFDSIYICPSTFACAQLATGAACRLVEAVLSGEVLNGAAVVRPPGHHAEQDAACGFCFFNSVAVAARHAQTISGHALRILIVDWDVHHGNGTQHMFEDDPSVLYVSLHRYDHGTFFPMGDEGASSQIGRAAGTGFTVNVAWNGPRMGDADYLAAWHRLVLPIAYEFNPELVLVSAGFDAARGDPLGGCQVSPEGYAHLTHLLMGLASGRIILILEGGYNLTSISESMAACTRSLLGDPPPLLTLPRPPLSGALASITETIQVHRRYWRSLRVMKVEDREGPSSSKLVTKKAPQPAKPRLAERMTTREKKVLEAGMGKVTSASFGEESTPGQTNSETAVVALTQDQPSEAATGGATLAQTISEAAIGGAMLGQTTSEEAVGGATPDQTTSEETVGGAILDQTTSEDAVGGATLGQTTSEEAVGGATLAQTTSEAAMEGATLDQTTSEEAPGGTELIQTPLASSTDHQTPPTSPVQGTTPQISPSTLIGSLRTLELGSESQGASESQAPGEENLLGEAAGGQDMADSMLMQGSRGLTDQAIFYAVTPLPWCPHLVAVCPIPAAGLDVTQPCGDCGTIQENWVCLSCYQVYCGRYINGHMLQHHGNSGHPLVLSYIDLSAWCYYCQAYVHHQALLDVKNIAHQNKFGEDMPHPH
Test: In vitro histone deacetylase assay: enzymatic HDAC6 electrophoretic mobility shift assay
Type: biochemical
Conditions: 1 nM enzyme, 2 μM peptide substrate RHKK(Ac)-NH2, 25° C., 12 concentrations; read-out: Inhibitory Concentration (IC50) Values against HDAC6, Activity Range

SMILES | IC50 [nM]
O=C(NO)c1ccc2c(c1)OCCN(C(=O)C1CCC(F)(F)CC1)C2 [4-(4,4-difluorocyclohexane-1-carbonyl)-N-hydroxy-2,3,4,5-tetrahydrobenzo[f][1,4]oxazepine-8-carboxamide] | 100 to 500
CC(C)C1OCCC1C(=O)N1Cc2ccc(C(=O)NO)cc2OC[C@@H]1C (stereo partly drawn) [(3S)-N-hydroxy-4-(2-isopropyltetrahydrofuran-3-carbonyl)-3-methyl-2,3,4,5-tetrahydrobenzo[f][1,4]oxazepine-8-carboxamide] | ≤ 100
C[C@H]1COc2cc(C(=O)NO)ccc2CN1C(=O)[C@@]1(C)CCOC1 [(S)-N-hydroxy-3-methyl-4-((S)-3-methyltetrahydrofuran-3-carbonyl)-2,3,4,5-tetrahydrobenzo[f][1,4]oxazepine-8-carboxamide] | ≤ 100
CCC1(C(=O)N2Cc3ccc(C(=O)NO)cc3OC[C@@H]2C)COC1 [(S)-4-(3-ethyloxetane-3-carbonyl)-N-hydroxy-3-methyl-2,3,4,5-tetrahydrobenzo[f][1,4]oxazepine-8-carboxamide] | ≤ 100
C[C@H]1c2ccc(C(=O)NO)cc2OCCN1C(=O)[C@@H]1CCCOC1 [(S)-N-hydroxy-5-methyl-4-((R)-tetrahydro-2H-pyran-3-carbonyl)-2,3,4,5-tetrahydrobenzo[f][1,4]oxazepine-8-carboxamide] | ≤ 100
C[C@H]1COc2cc(C(=O)NO)ccc2CN1C(=O)C1CCCC1 [(S)-4-(cyclopentanecarbonyl)-N-hydroxy-3-methyl-2,3,4,5-tetrahydrobenzo[f][1,4]oxazepine-8-carboxamide] | ≤ 100
COCC1(C(=O)N2Cc3ccc(C(=O)NO)cc3OC[C@@H]2C)CCC1 [(S)-N-hydroxy-4-(1-(methoxymethyl)cyclobutane-1-carbonyl)-3-methyl-2,3,4,5-tetrahydrobenzo[f][1,4]oxazepine-8-carboxamide] | ≤ 100
C[C@H]1c2cc(C(=O)NO)ccc2OCCN1C(=O)C1(C)CCC1 [(S)-N-hydroxy-5-methyl-4-(1-methylcyclobutane-1-carbonyl)-2,3,4,5-tetrahydrobenzo[f][1,4]oxazepine-7-carboxamide] | 100 to 500
C[C@H]1COc2cc(C(=O)NO)ccc2CN1C(=O)[C@H]1CCOC(C)(C)C1 [(S)-4-((S)-2,2-dimethyltetrahydro-2H-pyran-4-carbonyl)-N-hydroxy-3-methyl-2,3,4,5-tetrahydrobenzo[f][1,4]oxazepine-8-carboxamide] | ≤ 100
COC1(C(=O)N2Cc3ccc(C(=O)NO)cc3OC[C@@H]2C)CCCC1 [(S)-N-hydroxy-4-(1-methoxycyclopentane-1-carbonyl)-3-methyl-2,3,4,5-tetrahydrobenzo[f][1,4]oxazepine-8-carboxamide] | ≤ 100
C[C@H]1COc2cc(C(=O)NO)ccc2CN1C(=O)[C@@H]1CCOC1 [(S)-N-hydroxy-3-methyl-4-((R)-tetrahydrofuran-3-carbonyl)-2,3,4,5-tetrahydrobenzo[f][1,4]oxazepine-8-carboxamide] | ≤ 100
C[C@H]1COc2cc(C(=O)NO)ccc2CN1C(=O)CC(C)(C)O [(S)-N-hydroxy-4-(3-hydroxy-3-methylbutanoyl)-3-methyl-2,3,4,5-tetrahydrobenzo[f][1,4]oxazepine-8-carboxamide] | ≤ 100
COC(C)(C)CC(=O)N1Cc2ccc(C(=O)NO)cc2OC[C@@H]1C [(S)-N-hydroxy-4-(3-methoxy-3-methylbutanoyl)-3-methyl-2,3,4,5-tetrahydrobenzo[f][1,4]oxazepine-8-carboxamide] | ≤ 100
CO[C@H]1CC[C@@H](C(=O)N2CCOc3cc(C(=O)NO)ccc3[C@@H]2C)CC1 (single isomer, unassigned) | ≤ 100
C[C@@H]1COc2cc(C(=O)NO)ccc2CN1C=O [(R)-4-formyl-N-hydroxy-3-methyl-2,3,4,5-tetrahydrobenzo[f][1,4]oxazepine-8-carboxamide] | ≤ 100
O=C(NO)c1ccc2c(c1)OCCN(C(=O)C(O)(c1ccccc1)C1CCCC1)C2 (stereo not drawn) [4-(2-cyclopentyl-2-hydroxy-2-phenylacetyl)-N-hydroxy-2,3,4,5-tetrahydrobenzo[f][1,4]oxazepine-8-carboxamide] | > 500
CC(C)[C@@H]1C[C@@H](C(=O)N2Cc3ccc(C(=O)NO)cc3OC[C@@H]2C)CCO1 [(S)-N-hydroxy-4-((2S,4S)-2-isopropyltetrahydro-2H-pyran-4-carbonyl)-3-methyl-2,3,4,5-tetrahydrobenzo[f][1,4]oxazepine-8-carboxamide] | ≤ 100
C[C@H]1COc2cc(C(=O)NO)ccc2CN1C(=O)[C@H]1CCOC1 [(S)-N-hydroxy-3-methyl-4-((S)-tetrahydrofuran-3-carbonyl)-2,3,4,5-tetrahydrobenzo[f][1,4]oxazepine-8-carboxamide] | ≤ 100
CO[C@H]1C[C@H](C(=O)N2Cc3ccc(C(=O)NO)cc3OC[C@@H]2C)C1 | ≤ 100
CC(C)[C@H]1c2ccc(C(=O)NO)cc2OCCN1C(=O)C1COC1 [(S)-N-hydroxy-5-isopropyl-4-(oxetane-3-carbonyl)-2,3,4,5-tetrahydrobenzo[f][1,4]oxazepine-8-carboxamide] | > 500
CC(=O)N1Cc2ccc(C(=O)NO)cc2OC[C@@H]1C(C)C [(S)-4-acetyl-N-hydroxy-3-isopropyl-2,3,4,5-tetrahydrobenzo[f][1,4]oxazepine-8-carboxamide] | 100 to 500

The next lines start with the values.

IC50 [nM] | SMILES
> 500 | O=C(NO)c1ccc2c(c1)OCCN(C(=O)Cc1ccc(C(F)(F)F)cc1)C2 [N-hydroxy-4-(2-(4-(trifluoromethyl)phenyl)acetyl)-2,3,4,5-tetrahydrobenzo[f][1,4]oxazepine-8-carboxamide]
100 to 500 | Cc1nc(CC(=O)N2CCOc3cc(C(=O)NO)ccc3C2)cs1 [N-hydroxy-4-(2-(2-methylthiazol-4-yl)acetyl)-2,3,4,5-tetrahydrobenzo[f][1,4]oxazepine-8-carboxamide]
100 to 500 | O=C(NO)c1ccc2c(c1)OCCN(C(=O)C1CC3(CCNCC3)c3ccccc31)C2 (stereo not drawn) [4-(2,3-dihydrospiro[indene-1,4′-piperidine]-3-carbonyl)-N-hydroxy-2,3,4,5-tetrahydrobenzo[f][1,4]oxazepine-8-carboxamide]
≤ 100 | Cn1c(C(=O)N2CCOc3cc(C(=O)NO)ccc3C2)cc2ccccc21 [N-hydroxy-4-(1-methyl-1H-indole-2-carbonyl)-2,3,4,5-tetrahydrobenzo[f][1,4]oxazepine-8-carboxamide]
≤ 100 | C[C@H]1COc2cc(C(=O)NO)ccc2CN1C(=O)c1ccc(F)cc1 [(S)-4-(4-fluorobenzoyl)-N-hydroxy-3-methyl-2,3,4,5-tetrahydrobenzo[f][1,4]oxazepine-8-carboxamide]
100 to 500 | CCC(Oc1ccccc1)C(=O)N1CCOc2cc(C(=O)NO)ccc2C1 (stereo not drawn) [N-hydroxy-4-(2-phenoxybutanoyl)-2,3,4,5-tetrahydrobenzo[f][1,4]oxazepine-8-carboxamide]
100 to 500 | O=C(NO)c1ccc2c(c1)O[C@H](c1ccccc1)CN(C(=O)C1CCOCC1)C2 [(R)-N-hydroxy-2-phenyl-4-(tetrahydro-2H-pyran-4-carbonyl)-2,3,4,5-tetrahydrobenzo[f][1,4]oxazepine-8-carboxamide]
100 to 500 | O=C(NO)c1ccc2c(c1)OCCN(C(=O)C(Oc1ccccc1)c1ccccc1)C2 (stereo not drawn) [N-hydroxy-4-(2-phenoxy-2-phenylacetyl)-2,3,4,5-tetrahydrobenzo[f][1,4]oxazepine-8-carboxamide]
> 500 | O=C(NO)c1ccc2c(c1)OCCN(C(=O)CCO)C2 [N-hydroxy-4-(3-hydroxypropanoyl)-2,3,4,5-tetrahydrobenzo[f][1,4]oxazepine-8-carboxamide]
≤ 100 | O=C(NO)c1ccc2c(c1)OCCN(C(=O)c1ccc3c(c1)OCO3)C2 [4-(benzo[d][1,3]dioxole-5-carbonyl)-N-hydroxy-2,3,4,5-tetrahydrobenzo[f][1,4]oxazepine-8-carboxamide]
≤ 100 | O=C(NO)c1ccc2c(c1)OCCN(C(=O)C1(Cn3cccn3)CC1)C2 [4-(1-((1H-pyrazol-1-yl)methyl)cyclopropane-1-carbonyl)-N-hydroxy-2,3,4,5-tetrahydrobenzo[f][1,4]oxazepine-8-carboxamide]
≤ 100 | COC1(C(=O)N2CCOc3cc(C(=O)NO)ccc3C2)CC1 [N-hydroxy-4-(1-methoxycyclopropane-1-carbonyl)-2,3,4,5-tetrahydrobenzo[f][1,4]oxazepine-8-carboxamide]
